Measurements from patent US7718578B2, “Method of synthesis and testing of combinatorial libraries using microcapsules” (Medical Research Council, priority 2003, dated 2010).

Experiments:
[1] = Compartmentalisation of small molecules in water-in-fluorocarbon emulsions (epifluorescence microscopy); assay type: physicochemical; conditions: water-in-perfluorooctyl bromide emulsions mixed by vortexing, 24 hours after mixing
Description: Water-in-fluorocarbon emulsions containing 95% (v/v) perfluorooctyl bromide, 5% (v/v) phosphate buffered saline containing the molecule of interest in solution, and 2% (w/v) C8F17C11H22OP(O)[N(CH2CH2)2O]2 (F8H11DMP) as surfactant were formed essentially as (Sadtler et al., 1996) by extrusion (15 times) through 14 μm filters (Osmonics) or by homogenising for 5 min at 25,000 r.p.m. using an Ultra-Turrax T8 Homogenizer (IKA) with a 5 mm dispersing tool. Emulsions were made containing a series of small fluorescent molecules dissolved in the aqueous phase at concentrations from […] to 2 mM. These molecules, including calcein, texas red, fluorescein, coumarin 102, 7-hydroxycoumarin-3-carboxylic acid and 7-diethylamino-4-methyl coumarin (coumarin 1), had molecular weights from 203 to 625 Da and Log P values—calculated using SRC's LogKow/KowWin Program (Meylan and Howard, 1995)—ranging from −0.49 to 4.09. Emulsions containing different coloured fluorochromes were mixed by vortexing. Compartmentalisation was observed by epifluorescence microscopy of the mixed emulsions. No exchange between compartments was observed 24 hours after mixing (see FIG. 5).

[2] = target: T1, human recombinant PTP1B, residues 1-322 (Homo sapiens, UniProt P18031); assay: Screening for PTP1B inhibition using microcapsules in microfluidic systems (DiFMUP, epifluorescence microscope); assay type: biochemical; conditions: Example 5: 100 μM compound solution, PTP1B 50 mU/ml, microfluidic droplets in PFD carrier fluid
T1 construct: human recombinant PTP1B, residues 1-322; Biomol Research Laboratories, Inc; purchased Biomol Research Laboratories, Inc
T1 sequence (P18031 1-322): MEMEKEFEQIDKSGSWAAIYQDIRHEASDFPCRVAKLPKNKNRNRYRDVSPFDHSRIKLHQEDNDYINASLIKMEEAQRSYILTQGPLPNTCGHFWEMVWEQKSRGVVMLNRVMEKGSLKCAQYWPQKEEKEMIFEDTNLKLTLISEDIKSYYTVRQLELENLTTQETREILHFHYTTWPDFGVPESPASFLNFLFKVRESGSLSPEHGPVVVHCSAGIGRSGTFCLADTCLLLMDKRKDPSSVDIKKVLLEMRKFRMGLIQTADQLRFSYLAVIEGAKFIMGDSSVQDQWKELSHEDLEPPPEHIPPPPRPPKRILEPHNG
Description: Microchannels are fabricated with rectangular cross-sections using rapid prototyping in poly(dimethylsiloxane) (PDMS) (McDonald and Whitesides, 2002) and rendered hydrophobic as (Song and Ismagilov, 2003). Syringe pumps were used to drive flows (Harvard Apparatus PHD 2000 Infusion pumps). For aqueous solutions, 50 μl Hamilton Gastight syringes (1700 series, TLL) with removeable needles of 27-gaugeare used with 30-gauge Teflon tubing (Weico Wire and Cable). For the carrier fluid, 1 ml Hamilton Gastight syringes (1700 series, TLL) are used with 30-gauge Teflon needles with one hub from Hamilton (Song and Ismagilov, 2003). The carrier fluid is 9% (v/v) C6F11C2H4OH in perfluorodecaline (PFD) (Song et al., 2003). All water-soluble reagents were dissolved in (25 mM HEPES, pH 7.4, 125 mM NaCl, 1 mM EDTA), a buffer compatible with PTP1B activity.
These three steams are continuously injected into a flow of water immiscible fluorocarbon carrier fluid (9% (v/v) C6F11C2H4OH in PFD). Inlet channels for the aqeous solutions are […] wide and channel for PFD is 28 μm wide. […]
The channel immediately downstream of the point of droplet formation is winding with a peak to peak distance of 50 μm for a distance of 1 mm. […] Fluorescence of the microcapsules due to production of DiFMU (excitation/emmission maxima 358/452 nm; blue fluorescence) is measured using an epifluorescence microscope. […]

[3] = target: T1, human recombinant PTP1B, residues 1-322; assay: Screening for PTP1B inhibitors in water-in-oil emulsion microcapsules with fluorogenic substrate DiFMUP, multi-colour flow cytometry; assay type: biochemical; conditions: PTP1B 5 mU/ml, 37° C. for 30 min
Description: A solution of 1% (w/v) Span 60 and 1% (w/v) cholesterol in decane (all from Sigma Aldrich) is prepared by dissolving 80 mg of Span 60 and 80 mg of cholesterol into 7.84 ml of decane. The decane is heated to 45° C. to allow complete solubilization of the surfactant and cholesterol. The surfactant/decane solution is divided over batches of 200 μl and placed in a block-heater at 37° C.
A hand-extruding device (Mini extruder, Avanti Polar Lipids Inc, Alabaster, Ala., USA) is assembled according to the manufacturer's instructions. For extrusion, a single 19 mm Track-Etch polycarbonate filter with average pore size of 14 μm (Whatman Nuclepore, Whatman, Maidstone, UK) is fitted inside the mini extruder. Two gas-tight 1 ml Hamilton syringes (Gastight #1001, Hamilton Co, Reno, Nev., USA) are used for extrusion. […]
The two emulsions are mixed by vortexing in ratios varying from 1:1000 to 1:1 (compound 2 emulsion: hydrocinnamic acid emulsion) and incubated at 37° C. for 30 min. Inhibitors reduce the amount of non-fluorescent substrate (DiFMUP) converted to the dephosphorylated product (DiFMU; excitation/emmission maxima 358/452 nm; blue fluorescence). […]
The double emulsions are then analysed by multi-colour flow cytometery using a MoFlo (Cytomation) flow cytometer. […]

exchange between microdroplets / compartments [1] | fluorescence of microcapsules due to production of DiFMU [2] | Compound | blue fluorescence of microcapsules (dephosphorylation of DiFMUP by PTP1B) ([3]; Example 1: 100 μM compound, two emulsions mixed by vortexing) | blue fluorescence of microcapsules (dephosphorylation of DiFMUP by PTP1B) ([3]; Example 2: 100 μM compound, mixtures added sequentially while homogenising)
No exchange |  | texas-red |  | 
 | exhibiting blue fluorescence | O=C(O)CCc1ccccc1 [hydrocinnamic acid] | blue fluorescence due to dephosphorylation of DiFMUP by PTP1B | blue fluorescence due to dephosphorylation of DiFMUP by PTP1B
No exchange |  | O=C(O)CN(CC(=O)O)Cc1cc2c(cc1O)Oc1cc(O)c(CN(CC(=O)O)CC(=O)O)cc1C21OC(=O)c2ccccc21 [calcein] |  | 
